# Assay results as given in patent US20060258754A1, “Method of treating endothelial dysfunction, oxidative stress and related diseases” (priority 2004, published 2006).
# “Also recorded” adds a separate entry of the source.
# Tests used:
# [1] = tested on: renal vascular bed of perfused kidneys; experiment: Acute perfusion of diabetic rabbit kidneys: acetylcholine-induced decrease in perfusion pressure; parameters: species or system alloxan-diabetic rabbits; settings: 3-week diabetic rabbit kidneys; for restoration of vasorelaxant effect of acetylcholine, DCI versus db-DCI: repeated perfusion experiment, 1 μM; for restoration of endothelial function (acetylcholine induced decrease in perfusion pressure): perfusion with 1 μM, first experiment
# Description: (§1) Male California rabbits, weighing 2-2.5 kg, were provided by the vivarium of the Biomedicine Institute-UFC. Diabetes was induced by intraperitoneal injection of alloxan (150 mg/kg) and only animals with plasma glucose concentration above 200 mg/dl were included in the study. Age-matched euglycemic rabbits were used as controls.
# Kidneys and aortic rings are harvested from diabetic rabbits after 3 weeks of alloxan injection. They are perfused with KHS containing 1 μM D-chiro-inositol, pinitol, dibutyryl D-chiro-inositol, myo-inositol or saline for 1 hour. Dose response curves for acetylcholine are then performed following prior phenylephrine vasoconstriction as described. At least 6 separate experiments will be performed each in duplicate.
# Kidneys and aortic rings were harvested from diabetic rabbits after 3 weeks of alloxan injection. The animals were sacrificed under sodium pentobarbital anesthesia (Hypnol®, 150-200 mg/kg). […]. Rabbit kidneys were obtained from male New Zealand rabbits (1-1.5 kg) after cannulation of the renal artery in situ. [Thereafter the organ is rapidly perfused with warm KHS at 37° C., pH 7.4 and gassed with 95% O2 in 5% CO2 in an open system with a constant flow adjusted to yield 1 mL/g/min and maintained by a peristaltic pump. The alterations in perfusion pressure are continuously recorded in a four-channel polygraph (Narco Biosystems, Houston, Tex., USA) by means of a pressure transducer (P23 Gould Stratham, Oxnard, Calif., USA). After a 30 minute equilibration period, phenylephrine (1 to 5 μM) is infused by means of an infusion pump at a constant rate (0.1 ml/min) in order to achieve a stable perfusion pressure (100-120 mm Hg). Concentration-response curves are performed to the vasodilators, i.e. acetylcholine (Ach; 10^-9 to 10^-3 M). Drugs are injected as a 50 μL bolus, previously shown not to effect perfusion pressure in an arm side just above the cannula in the renal artery.] Following penectomy, the corpus cavernosum was dissected in Krebs solution and cleared of the tunica albuginea and surrounding tissues. Strips (2 cm) were mounted vertically in isometric baths (5 mL) in Krebs-Henseleit solution (37° C., pH 7.4 gassed with 95% O2 in 5% CO2) enriched with indomethecin (10 μM) and guanethedine (10 μM) in order to avoid prostanoid or neuronal norandrenergic interaction. After a 60 minute period for stabilization, tissues were precontracted with 10 μM phenylephrine in order to increase the basal tonus. Thereafter, frequency response curves to transmural electrical field stimulations (EFS—square wave pulses: 10 s train; 20 V, 0.5 ms, 2-16 Hz) were performed until two stable reproducible curves were attained. […]
# diabetic aortic rings = experiment: NO-induced relaxation in diabetic aortic rings contracted with phenylephrine; settings: 0.1 μM phenylephrine, inositol 10 μM, 1 hour, FIG. 14
# Description: NO action was investigated in aortic rings and RbCC. […] The data in FIGS. 14 are expressed as mean±SEM of 5 experimental units. * p<0.05, ANOVA followed by Tukey-Kramer, diab (C) vs. Inositol treated. # p<0.05, ANOVA followed by Tukey-Kramer, Eugly vs. Inositol treated. In FIG. 14, Veh=vehicle; C=diabetic control; Diab=diabetic control; Eugly=euglycemic tissue. Relaxation was restored toward or to normal by incubation with inositols.
# penile corpus cavernosus = experiment: Rabbit penile corpus cavernosus: relaxation to electrical field stimulation after 60 min incubation; parameters: species or system low dose alloxan-diabetic rabbit; settings: 1 μM; for restoration of vasorelaxant effect of electrical stimulation of the pudendal nerve: EFS 2-16 Hz, FIG. 8
# Description: as §1
# Kidneys and aortic rings were harvested from diabetic rabbits after 3 weeks of alloxan injection. The animals were sacrificed under sodium pentobarbital anesthesia (Hypnol®, 150-200 mg/kg). […]. Rabbit kidneys were obtained from male New Zealand rabbits (1-1.5 kg) after cannulation of the renal artery in situ. [Thereafter the organ is rapidly perfused with warm KHS at 37° C., pH 7.4 and gassed with 95% O2 in 5% CO2 in an open system with a constant flow adjusted to yield 1 mL/g/min and maintained by a peristaltic pump. The alterations in perfusion pressure are continuously recorded in a four-channel polygraph (Narco Biosystems, Houston, Tex., USA) by means of a pressure transducer (P23 Gould Stratham, Oxnard, Calif., USA). After a 30 minute equilibration period, phenylephrine (1 to 5 μM) is infused by means of an infusion pump at a constant rate (0.1 ml/min) in order to achieve a stable perfusion pressure (100-120 mm Hg). Concentration-response curves are performed to the vasodilators, i.e. acetylcholine (Ach; 10^-9 to 10^-3 M). Drugs are injected as a 50 μL bolus, previously shown not to effect perfusion pressure in an arm side just above the cannula in the renal artery.] Following penectomy, the corpus cavernosum was dissected in Krebs solution and cleared of the tunica albuginea and surrounding tissues. Strips (2 cm) were mounted vertically in isometric baths (5 mL) in Krebs-Henseleit solution (37° C., pH 7.4 gassed with 95% O2 in 5% CO2) enriched with indomethecin (10 μM) and guanethedine (10 μM) in order to avoid prostanoid or neuronal norandrenergic interaction. After a 60 minute period for stabilization, tissues were precontracted with 10 μM phenylephrine in order to increase the basal tonus. Thereafter, frequency response curves to transmural electrical field stimulations (EFS—square wave pulses: 10 s train; 20 V, 0.5 ms, 2-16 Hz) were performed until two stable reproducible curves were attained. Then, frequency response curves were repeated after 60 min incubation with saline or 1 μM pinitol, DCI or db-DCI in the alloxan-diabetic rabbits. They are perfused with KHS containing 1 μM D-chiro-inositol, pinitol, dibutyryl D-chiro-inositol, myo-inositol or saline for 60 min. Dose response curves for acetylcholine are then performed following prior phenylephrine vasoconstriction as described. At least 6 separate experiments were performed each in duplicate.
# [2] = tested on: bovine aortic endothelial cells; experiment: Superoxide assay in cells: ROS in high glucose (CM-H2DCFDA); type: cell-based; settings: for reduction of ROS in cells: 30 mM glucose (ROS increased 2 fold vs 5 mM), 20, 50, 100 μM, FIG. 9; for maximal concentration for ROS reduction: 30 mM glucose, tested 20, 50, 100 μM
# Description: Bovine aortic endothelial cells were incubated in 5 mM (control) or 30 mM (hyperglycemic) glucose for 2 hours and reactive oxygen species (ROS) determined fluorometrically using the probe CM-H2DCFDA as described by Brownlee et al. Cells were loaded with 10 μM CM-H2DCFDDA, incubated for 45 min at 37°, and then analyzed in an HTS 7000 Bio assay Fluorescent Plate Reader using HT software. ROS production is reported as nmol/mL based on a standard curve produced with H2O2.
# vascular mesenteric bed = experiment: Rat arteriolar mesenteric bed: acetylcholine-evoked decrease in perfusion pressure after 4-week oral treatment; type: in vivo, alloxan-diabetic male Wistar rats; settings: for effect on microvascular endothelial dysfunction: chronic (4-week) oral administration, highest acetyl choline concentrations, FIG. 4
# Description: Male Wistar rats, weighing between 230-250 g, fed regular chow, with free access to water were separated in four groups (n=10/each). The first two groups, termed normoglycemic, were treated with saline (0.1 mL/100 g/12 h) by the oral route (intragastric gavage) or untreated for four weeks. The second two groups, hyperglycemic, were treated with saline (0.1 mL/100 g/12 h) or treated with D-chiro-inositol (20 mg/kg/12 h) under the same protocol. […] Diabetes was induced by a single intravenous injection of 45 mg/kg alloxan as described by Sannomiya et al., 1997 ( ). Diabetes was diagnosed 96 h after injection by blood glucose assay >200 mg/dL. All protocols were approved by the local committee and follow the Guide for the Care and Use of Laboratory Animals published by the US National Institutes of Health (NIH Publication No. 85-23, revised 1996).
# The mesentery was carefully removed by cutting close to the intestinal border with a small scissors. […] The vascular bed was rapidly perfused with warm KHS (37° C.; pH 7.4; gassed with 95% O2 in 5% CO2) in an open system with a constant flow of 4 ml/min maintained with a peristaltic pump. Alterations in perfusion pressure were continuously recorded in a four-channel polygraph (Narco Biosystems, Houston, Tex., USA) by means of a pressure transducer (P23 Gould Stratham, Oxnard, Calif., USA). After a 30 minute equilibration period, phenylephrine (1 to 5 μM) was infused by means of an infusion pump at a constant rate (0.1 ml/min) in order to achieve a stable perfusion pressure (100-120 mm Hg). Dose response curves were performed with vasodilators, i.e. acetylcholine (Ach; 10^-9 to 10^-3 M). Drugs were injected as 50 μL boluses, previously shown not to effect perfusion pressure in a side arm just above the cannula in the mesenteric artery. At least 6 separate experiments were performed each in duplicate.
# [3] = listed as dibutyryl D-chiro-inositol
SMILES,"restoration of vasorelaxant effect of acetylcholine, DCI versus db-DCI [1]",relaxation to added NO (diabetic aortic rings),restoration of vasorelaxant effect of electrical stimulation of the pudendal nerve (penile corpus cavernosus),reduction of ROS in cells [2],reduction of ROS in cells ([2]; listed as D-chiro-inositol),maximal concentration for ROS reduction [2],effect on microvascular endothelial dysfunction (vascular mesenteric bed),effect on microvascular endothelial dysfunction (vascular mesenteric bed; listed as D-chiro-inositol),"maximal decrease in perfusion pressure to acetylcholine (vascular mesenteric bed; tissues from alloxan-diabetic rats treated with D-chiro-inositol 20 mg/kg/12 h by gavage for 4 weeks, saline-treated diabetic 23±5%, normoglycemic 61±3.7%)",restoration of endothelial function (acetylcholine induced decrease in perfusion pressure) ([1]; listed as db-DCI),"restoration of endothelial function (acetylcholine induced decrease in perfusion pressure) [1, 3]",restoration of vasorelaxant effect at EFS of 4 Hz (penile corpus cavernosus; EFS 4 Hz),reduction of ROS in cells ([2]; listed as Dibutyryl-DCI),effect on microvascular endothelial dysfunction (vascular mesenteric bed; [3])
"OC1C(O)C(O)C(O)C(O)C1O [DCI, D-chiro-inositol]",partially restored,restored relaxation to normal,restoration of vasorelaxant effect,reduced back to basal concentrations in a dose dependant manner,reduced to basal concentrations in a dose dependent manner,50 µM,approximately equally effective,effective,52±6%,–,–,–,–,–
"CCCC(=O)O[C@@H]1[C@@H](O)[C@@H](O)[C@H](O)[C@H](O)[C@H]1OC(=O)CCC [dbDCI, 3,4-dibutyryl-D-chiroinositol]",partially restored,restored relaxation to normal,restoration of vasorelaxant effect; also recorded: greatest effect at all levels of electrical stimulation,reduced back to basal concentrations in a dose dependant manner,–,20 µM,perhaps slightly better than pinitol and DCI,–,–,completely restored endothelial function,restored to normal,Almost complete restoration,greater effect of reducing ROS than DCI at lower concentrations,perhaps slightly better than pinitol and D-chiro-inositol
